In this assay the target is T1, α4β7 (adhesion of RPMI cells to CS-1) (Homo sapiens, UniProt P13612+P26010).
T1 construct: endogenous in cells
T1 sequence (P13612 34-1032): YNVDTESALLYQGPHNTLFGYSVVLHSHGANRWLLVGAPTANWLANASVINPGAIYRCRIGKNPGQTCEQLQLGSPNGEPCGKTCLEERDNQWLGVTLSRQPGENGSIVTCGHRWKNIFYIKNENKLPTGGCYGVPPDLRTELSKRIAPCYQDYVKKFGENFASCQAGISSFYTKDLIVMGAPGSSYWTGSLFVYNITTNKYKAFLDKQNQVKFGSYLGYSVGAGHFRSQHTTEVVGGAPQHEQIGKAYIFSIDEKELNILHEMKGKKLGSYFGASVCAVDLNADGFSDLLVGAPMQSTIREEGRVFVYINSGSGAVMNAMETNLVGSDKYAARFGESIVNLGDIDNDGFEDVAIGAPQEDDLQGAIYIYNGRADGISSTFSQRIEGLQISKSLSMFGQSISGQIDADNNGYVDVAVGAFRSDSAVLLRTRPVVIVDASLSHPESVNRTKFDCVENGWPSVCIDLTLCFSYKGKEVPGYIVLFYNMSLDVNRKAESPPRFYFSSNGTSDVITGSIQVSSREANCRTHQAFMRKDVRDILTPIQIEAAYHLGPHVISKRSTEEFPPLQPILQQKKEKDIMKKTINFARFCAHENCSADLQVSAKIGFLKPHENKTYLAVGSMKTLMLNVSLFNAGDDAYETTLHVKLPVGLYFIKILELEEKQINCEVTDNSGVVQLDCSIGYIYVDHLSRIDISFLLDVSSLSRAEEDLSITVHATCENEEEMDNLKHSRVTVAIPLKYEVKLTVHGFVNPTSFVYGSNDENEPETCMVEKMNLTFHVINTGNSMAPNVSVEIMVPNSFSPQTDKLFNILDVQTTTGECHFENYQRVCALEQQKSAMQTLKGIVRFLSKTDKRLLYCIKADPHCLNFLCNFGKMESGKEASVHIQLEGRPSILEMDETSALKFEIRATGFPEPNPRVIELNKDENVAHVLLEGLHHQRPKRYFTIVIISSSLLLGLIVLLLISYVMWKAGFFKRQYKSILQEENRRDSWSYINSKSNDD
T1 sequence (P26010 20-798): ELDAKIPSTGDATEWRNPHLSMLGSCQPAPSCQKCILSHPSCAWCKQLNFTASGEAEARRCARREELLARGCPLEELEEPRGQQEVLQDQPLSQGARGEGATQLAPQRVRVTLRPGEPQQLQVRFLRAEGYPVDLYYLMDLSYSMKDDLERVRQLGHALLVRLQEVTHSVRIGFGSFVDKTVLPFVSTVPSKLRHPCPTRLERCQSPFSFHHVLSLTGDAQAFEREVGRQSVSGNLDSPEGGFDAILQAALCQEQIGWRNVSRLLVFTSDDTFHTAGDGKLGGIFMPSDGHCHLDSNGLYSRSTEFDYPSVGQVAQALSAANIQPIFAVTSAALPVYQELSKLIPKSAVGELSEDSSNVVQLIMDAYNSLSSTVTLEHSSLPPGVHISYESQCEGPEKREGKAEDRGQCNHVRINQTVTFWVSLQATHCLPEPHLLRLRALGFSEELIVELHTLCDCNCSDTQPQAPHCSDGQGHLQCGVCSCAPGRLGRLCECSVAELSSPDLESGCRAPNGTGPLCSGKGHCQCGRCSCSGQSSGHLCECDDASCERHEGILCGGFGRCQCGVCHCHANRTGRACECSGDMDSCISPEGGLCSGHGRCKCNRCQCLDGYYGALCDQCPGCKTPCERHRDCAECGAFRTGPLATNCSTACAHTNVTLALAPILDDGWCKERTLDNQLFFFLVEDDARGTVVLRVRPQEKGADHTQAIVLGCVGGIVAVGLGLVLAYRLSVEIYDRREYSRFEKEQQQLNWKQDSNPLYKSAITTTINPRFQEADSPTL
Nature of the assay: RPMI-CS-1 cell adhesion assay. Type of assay: cell-based. The following applies: adhesion of RPMI B-cell line (expresses α4β7) to CS-1 peptide coated microwells; read-out: RPMI-CS-1 IC50 value range. The procedure:
RPMI-CS-1 Cell Adhesion Assay:
The test compounds were added in increasing concentrations to RPMI cells and then the cell-compound mixture was added to CS-1 coated microwells. The plates were incubated, washed and the percentage of attached cells were quantitated.
The CS-1 derived peptide, […], and the scrambled control peptide, […], were synthesized at Tanabe Research Laboratories, USA, Inc. on a Beckman 990 synthesizer using t-Boc methodology. […] Microtiter plates were coated with 20 μg/ml human serum albumin (HSA) for 2 hours at room temperature, washed once with PBS and derivatized with 10 μg/ml SPDP for 1 hour. […] Unbound peptide was removed from the plates by washing with PBS. To block non-reacted sites, the plates were coated with 100 μl of a 2.5 mg/ml BSA solution in PBS for one hour at 37° C. 100 μl of RPMI cells (2.5×10^6 cells/ml) in Dulbecco's Modified Eagles Medium (DMEM) plus 0.25% ovalbumin were added to peptide coated dishes and incubated for 1 hour at 37° C. […] To do this, the enzyme substrate p-nitrophenyl-N-acetyl-β-D-glucoseaminide is dissolved at 7.5 mM in 0.1 M citrate buffer pH 5 and then mixed with an equal volume of 0.5% Triton X100. 50 μl of the substrate solution was added to the plates and the plates were incubated at 37° C. for 60 minutes.
In this assay, IC50 value ranges (μM) are depicted by A, B, C and D. These ranges as follows. D>5≧C>1≧B>0.3≧A
With `COc1ccccc1-c1ccc(C[C@H](NC(=O)c2ccc([N+](=O)[O-])cc2Cl)C(=O)O)cc1` [Example 62, N-(2-Chloro-4-nitrobenzoyl)-4-(2-methoxyphenyl)-L-phenylalanine], the IC50 (usually the point on the concentration scale where inhibition reaches its midpoint) is less than 0.3 µM.

As for `CC(C)Oc1ccccc1-c1ccc(C[C@H](NC(=O)c2c(Cl)cccc2Cl)C(=O)O)cc1` [Example 225, N-(2,6-Dichlorobenzoyl)-4-(2-i-propoxyphenyl)-L-phenylalanine], the IC50 lay within 1 to 5 µM.

Turning to `COc1ccccc1-c1ccc(C[C@H](NC(=O)c2ccc(NS(=O)(=O)c3ccccc3)cc2Cl)C(=O)O)cc1` [Example 68, N-[2-Chloro-4-(benzenesulfonylamino)benzoyl]-4-(2-methoxyphenyl)-L-phenylalanine], the half-inhibitory concentration (IC50) is less than 0.3 µM.

`COc1cccc(OC)c1-c1ccc(C[C@H](NC(=O)c2c(F)cccc2F)C(=O)O)cc1` [Example 3, N-(2,6-Difluorobenzoyl)-4-(2,6-dimethoxyphenyl)-L-phenylalanine]: the IC50 was less than 0.3 µM.

Take `COc1ccccc1-c1ccc(C[C@H](NC(=O)c2ccc(C)nc2Cl)C(=O)O)cc1` [Example 94]: the IC50 was in the range of 1 to 5 µM.

With `CC(=O)Nc1cc(C[C@H](NC(=O)c2c(Cl)cccc2Cl)C(=O)O)ccc1-c1ccccc1` [Example 343, N-(2,6-Dichlorobenzoyl)-3-acetylamino-4-phenyl-L-phenylalanine], the IC50 is 1 to 5 µM.

On to `COc1ccccc1-c1ccc(C[C@H](NC(=O)c2ccccc2C(F)(F)F)C(=O)O)cc1` [Example 88], for which the IC50 is 1 to 5 µM.

Consider `COc1ccccc1-c1ccc(C[C@H](NC(=O)c2ccc(NC(=S)NC(C)C)cc2Cl)C(=O)O)cc1` [Example 195], for which the IC50 is 0.3 to 1 µM.

In the case of `COc1ccccc1-c1ccc(C[C@H](NC(=O)c2cccc(NS(=O)(=O)C(F)(F)F)c2Cl)C(=O)O)cc1` [Example 181, N-[2-Chloro-3-[(trifluoromethanesulfonyl)amino]-benzoyl]-4-(2-methoxyphenyl)-L-phenylalanine], the half-inhibitory concentration (IC50) lay within 0.3 to 1 µM.

Regarding `COc1cc(CN2CCSCC2)cc(OC)c1-c1ccc(C[C@H](NC(=O)c2c(Cl)cccc2Cl)C(=O)O)cc1` [Example 134], the 50% inhibitory concentration (IC50) was less than 0.3 µM.

Take `CN(C)C(=O)c1ccccc1-c1ccc(C[C@H](NC(=O)c2c(Cl)cccc2Cl)C(=O)O)cc1` [Example 58, N-(2,6-Dichlorobenzoyl)-4-[2-(N,N-dimethylcarbamoyl)phenyl]-L-phenylalanine]: the IC50 lay within 0.3 to 1 µM.

As to `COc1cccc(OC(C)C)c1-c1ccc(C[C@H](NC(=O)c2c(Cl)cccc2Cl)C(=O)O)cc1` [Example 226, N-(2,6-Dichlorobenzoyl)-4-(2-i-propyloxy-6-methoxyphenyl)-L-phenylalanine], the IC50 is less than 0.3 µM.

As to `COc1ccccc1-c1ccc(C[C@H](NC(=O)c2ccc(NC(=O)c3c(Cl)cccc3Cl)cc2)C(=O)O)cc1` [Example 107], the IC50 is 1 to 5 µM.

Turning to `COc1cccc(OC)c1-c1ccc(C[C@H](NC(=O)c2c(Cl)cc(-c3c(C)noc3C)cc2Cl)C(=O)O)cc1` [Example 309], the IC50 is less than 0.3 µM.

`O=C(NCc1ccccc1)c1ccccc1-c1ccc(C[C@H](NC(=O)c2c(Cl)cccc2Cl)C(=O)O)cc1` [Example 53, N-(2,6-Dichlorobenzoyl)-4-[2-(N-benzylcarbamoyl)phenyl]-L-phenylalanine]: the 50% inhibitory concentration (IC50) is 1 to 5 µM.

As for `COC(=O)[C@H](Cc1ccc(-c2ccccc2S(=O)(=O)NC(C)(C)C)cc1)NC(=O)c1c(Cl)cccc1Cl` [Example 15, N-(2,6-Dichlorobenzoyl)-4-[2-[N-(tert-butyl)sulfamoyl]phenyl]-L-phenylalanine methyl ester], the IC50 is 0.3 to 1 µM.

As for `C=CCOc1cc(OC)c(-c2ccc(C[C@H](NC(=O)c3c(Cl)cccc3Cl)C(=O)O)cc2)c(OC)c1` [Example 347], the IC50 was less than 0.3 µM.

On to `COCOc1ccc2c(c1-c1ccc(C[C@H](NC(=O)c3c(Cl)cccc3Cl)C(=O)O)cc1)OCO2` [Example 235, N-(2,6-Dichlorobenzoyl)-4-[2,3-methylenedioxy-6-(methoxymethoxy)phenyl]-L-phenylalanine], for which the IC50 was less than 0.3 µM.

For `COc1cccc(OC)c1-c1ccc(C[C@H](NC(=O)c2c(Cl)cccc2Cl)C(=O)OCc2ccncc2)cc1` [Example 274, N-(2,6-Dichlorobenzoyl)-4-(2,6-dimethoxyphenyl)-L-phenylalanine 4-pyridylmethyl ester], the IC50 fell in the range of 1 to 5 µM.

Consider `COc1cccc(OC)c1-c1ccc(C[C@H](NC(=O)c2c(Cl)cc(-c3cccnc3)cc2Cl)C(=O)O)cc1` [Example 311], for which the IC50 was less than 0.3 µM.

`COc1cc(CN2CCS(=O)(=O)CC2)cc(OC)c1-c1ccc(C[C@H](NC(=O)c2c(Cl)cccc2Cl)C(=O)O)cc1` [Example 263A, N-(2,6-dichlorobenzoyl)-4-[2,6-dimethoxy-4-(thiomorpholinomethyl)phenyl]-L-phenylalanine S,S-dioxide]: the IC50 is less than 0.3 µM.

In the case of `C[S+]([O-])c1ccccc1-c1ccc(C[C@H](NC(=O)c2c(Cl)cccc2Cl)C(=O)O)cc1` (single isomer, unassigned) [Example 152A, N-(2,6-dichloro-benzoyl)-4-[2-(methylsulfinyl)phenyl]-L-phenylalanine], the 50% inhibitory concentration (IC50) was less than 0.3 µM.

With `COc1ccccc1-c1ccc(C[C@H](NC(=O)c2ccc(Cl)nc2)C(=O)O)cc1` [Example 93], the half-inhibitory concentration (IC50) was more than 5 µM.

As for `COc1sccc1-c1ccc(C[C@H](NC(=O)c2c(Cl)cccc2Cl)C(=O)O)cc1` [Example 136], the IC50 is 0.3 to 1 µM.

In the case of `CC(C)COc1ccccc1-c1ccc(C[C@H](NC(=O)c2c(Cl)cccc2Cl)C(=O)O)cc1` [Example 35], the IC50 was 1 to 5 µM.

As for `COc1ccccc1-c1ccc(C[C@H](NC(=O)c2cc(NS(=O)(=O)C(F)(F)F)ccc2Cl)C(=O)O)cc1` [Example 180, N-[2-Chloro-5-[(trifluoromethanesulfonyl)amino]-benzoyl]-4-(2-methoxyphenyl)-L-phenylalanine], the IC50 was less than 0.3 µM.

Consider `CS(=O)(=O)Nc1ccccc1-c1ccc(C[C@H](NC(=O)c2c(Cl)cccc2Cl)C(=O)O)cc1` [Example 24, N-(2,6-Dichlorobenzoyl)-4-[2-(methanesulfonylamino)phenyl]-L-phenylalanine], for which the IC50 is less than 0.3 µM.

Take `COc1ccccc1-c1ccc(C[C@H](NC(=O)c2ccc(NS(=O)(=O)c3ccc(C(F)(F)F)cc3)cc2Cl)C(=O)O)cc1` [Example 187, N-[2-Chloro-4-[[(4-trifluoromethylphenyl)sulfonyl]amino]benzoyl]-4-(2-methoxyphenyl)-L-phenylalanine]: the IC50 was less than 0.3 µM.

Source of the values: patent publication US6855843B2, “Inhibitors of α4 mediated cell adhesion” (Tanabe Seiyaku Co., Ltd., priority 1998, dated 2005).
